# According to patent US10610563B2, “Use of ubiquitin-proteasome system inhibitors for treatment of tumors associated with neurofibromatosis type-2” (BIOXCEL CORPORATION, priority 2014, dated 2020):
# How the values were obtained:
# Caspase 3/7 [1] = assay: Caspase 3/7 activity (Caspase-Glo 3/7) in control haploid cells; conditions: 18 hrs
# Caspase 3/7 [2] = assay: Caspase 3/7 activity (Caspase-Glo 3/7) in NF2 knockout cell line; conditions: 18 hrs
# 20S proteasome [3] = target: T1, 20S proteasome (Homo sapiens, UniProt P28074); assay: 20S proteasome activity (chymotrypsin-like, Suc-LLVY-AMC) in NF2 knockout cells; assay type: cell-based
# Procedure: (§1) The cells were then washed in PBS (Phosphate buffered saline) and lysed in a buffer containing non-ionic detergent and ATP. The cell lysate was centrifuged at 15,000 g for 30 minutes at 4° C. The supernatant was collected, aliquoted and stored at −80° C. until assay. Chymotrypsin-like peptidase activity of 20S proteasome was measured by using 40 μM Succinyl-Leu-Leu-Val-Tyr-AMC (Boston Biochem: S-280), a fluorogenic peptide substrate, along with 12 nM of recombinant PA28α (Boston Biochem: E-381 or R&D Systems Cat. # E-381-100), in an assay buffer containing 20 mM HEPES pH 7.4 and 0.5 mM EDTA. 20S proteasome cleaved the peptide substrate to release the free fluorophore AMC. […] The compound carfilzomib was used as an internal control for the assay (NF2 cells treated with carfilzomib). Similar assay was also performed with the wild type haploid (HAP1) cells for 18 hrs at different bortezomib concentrations ranging from 1 nM to 300 nM (i.e. 1 nM, 3 nM, 10 nM, 30 nM, 100 nM and 300 nM). The reaction was monitored by measuring the fluorescence through Flex Station 3 (Molecular Devices) or Envision (PerkinElmer) (excitation/emission: 353/442 nm), for 1 hour a 37° C. under kinetic setting. Substrate turnover was estimated as a standard curve generated using standard AMC. The results of 20S proteasome assay are described in FIGS. 1, 2, 3, 4 & 5.
# 20S proteasome [4] = target: T1, 20S proteasome; assay: 20S proteasome activity (chymotrypsin-like, Suc-LLVY-AMC) in wild type haploid (HAP1) cells; assay type: cell-based; conditions: concentration dependent manner; 18 hrs
# Procedure: as §1
# LATS1 = assay: Western blot analysis for LATS1 protein in NF2 knockout cell line; assay type: cell-based; conditions: 3, 10 & 30 nM at 18 hrs; compared to cells not treated
# Procedure: Cells from NF2 knockout cell line 1293-1 cells control Haploid cell line (control wild type cells) are seeded in 6 well plates. […] LATS1 protein was assayed by Western blot (Chemiluminescence) method and both NF2 cell lines are used in the analysis. […] Cell lysates were analysed by western blotting and LATS1 was detected using anti-lats1 antibody (Abcam, ab70561); GAPDH protein levels were assayed using anti-GAPDH antibody as endogenous control. The objective was to quantify the up-regulation/down-regulation of proteins (LATS1) involved in Hippo signaling pathway in NF2 knockout cell line compared to the control cell line. Another objective is to observe the effect of bortezomib treatment in the NF2 knockout cell line, following assays using the Western Blot/WES System.
# mesothelioma = assay: Treatment of mesothelioma patients carrying mutations in NF2 or BAP1 genes; assay type: in vivo; conditions: mesothelioma patients with NF2 or BAP1 mutation; 1.3 mg/m^2 intravenous bolus twice in a week, 21-d cycle, up to eight cycles
# From the text: Mesothelioma patients can be screened for mutation(s) in any of these genes by molecular genetic testing, which is done by the mutation scanning and gene duplication/deletion testing. For example, mutation scanning is done by polymerase chain reaction amplification of the DNA of patients compared to control DNA, and DNA with altered DNA segments may be subjected to the further testing, such as sequence analysis to identify the sequence alterations. Gene duplication/deletion testing is done by quantitative polymerase chain reaction, long-range polymerase chain reaction, multiplex ligation-dependent probe amplification (MLPA), and chromosomal microarray (CMA) that includes the gene/chromosome segment for detection. Molecular genetic testing confirms about the mutation in the NF2 gene or that in the BAP1 gene. […] Bortezomib at a dose of 1.3 mg/m^2 via intravenous bolus for 3 to 5 seconds is given to patients, twice in a week for at least 2 weeks (days 1, 4, 8 and 11) of a 21-d cycle for up to eight cycles.
# in vitro = conditions: human, wild type haploid (HAP1) cells
# [5] = test system: NF2 knockout cell line 1293-1; assay: Cell proliferation/cytotoxicity assay (MTS / CellTitre Blue) in NF2 knockout cell line
# [6] = test system: wild type haploid (HAP1) cells; assay: Cell proliferation/cytotoxicity assay (MTS / CellTitre Blue) in control HAP1 cell line
# [7] = 0.1 nM to 100 nM, 6 hrs and 12 hrs
smiles,measurement,setting,value
CN[C@@H]1C[C@H]2O[C@@](C)([C@@H]1OC)n1c3ccccc3c3c4c(c5c6ccccc6n2c5c31)C(=O)NC4 [Staurosporine],"apoptosis in the Caspase 3/7 assay, positive reference control, wild type haploid cell line",Caspase 3/7 [1]; Staurosporine 1 & 10 μM,induced apoptosis was also observed
same,"apoptosis in the Caspase 3/7 assay, positive reference control, NF2 knockout cell line",Caspase 3/7 [2]; Staurosporine 1 & 10 μM,induced apoptosis was also observed
"CC(C)C[C@H](NC(=O)[C@H](Cc1ccccc1)NC(=O)c1cnccn1)B(O)O [bortezomib, [(1R)-3-methyl-1-({(2S)-3-phenyl-2[(pyrazin-2-ylcarbonyl)amino]propanoyl}amino)butyl]boronic acid]",proteasome activity in the NF2 knockout cell line (dose dependence),20S proteasome [3]; 1 nM to 300 nM,dose dependent decrease in proteasome activity
same,proteasome activity in the NF2 knockout cell line,"20S proteasome [3]; from 3 nM onwards, post 6 hrs, 12 hrs, 18 hrs and 24 hrs incubation",decreased significantly
same,"comparison of % inhibition in proteasome activity, NF2 knockout cells vs wild type haploid cells",20S proteasome [3]; post 18 hrs incubation (FIG. 5),greater inhibition in the NF2 knockout cells
same,proteasome activity in the wild type haploid cell line,20S proteasome [4],showed inhibition in proteasome activity
same,levels of LATS1 protein in NF2 knockout cell line (Western blot),LATS1,increased levels of LATS1
same,delay in tumor progression,mesothelioma,50%
same,reduction in tumor size,mesothelioma,25%
same,"cytotoxicity at 6 h, 0.1 nM",in vitro,2.64%
same,"cytotoxicity at 6 h, 0.3 nM",in vitro,4.7%
same,"cytotoxicity at 6 h, 1 nM",in vitro,5.65%
same,"cytotoxicity at 6 h, 3 nM",in vitro,1.58%
same,"cytotoxicity at 6 h, 10 nM",in vitro,0.99%
same,"cytotoxicity at 6 h, 30 nM",in vitro,7.63%
same,"cytotoxicity at 6 h, 60 nM",in vitro,9.63%
same,"cytotoxicity at 6 h, 100 nM",in vitro,6.08%
same,"cytotoxicity at 12 h, 0.1 nM",in vitro,3.91%
same,"cytotoxicity at 12 h, 0.3 nM",in vitro,2.62%
same,"cytotoxicity at 12 h, 1 nM",in vitro,0.2%
same,"cytotoxicity at 12 h, 3 nM",in vitro,1.1%
same,"cytotoxicity at 12 h, 10 nM",in vitro,5.12%
same,"cytotoxicity at 12 h, 30 nM",in vitro,24.9%
same,"cytotoxicity at 12 h, 60 nM",in vitro,31.9%
same,"cytotoxicity at 12 h, 100 nM",in vitro,26.9%
same,"cytotoxicity at 18 h, 0.1 nM",in vitro,6.83%
same,"cytotoxicity at 18 h, 0.3 nM",in vitro,6.9%
same,"cytotoxicity at 18 h, 1 nM",in vitro,5.78%
same,"cytotoxicity at 18 h, 3 nM",in vitro,7.83%
same,"cytotoxicity at 18 h, 10 nM",in vitro,7.56%
same,"cytotoxicity at 18 h, 30 nM",in vitro,26.3%
same,"cytotoxicity at 18 h, 60 nM",in vitro,31%
same,"cytotoxicity at 18 h, 100 nM",in vitro,32.7%
same,"cytotoxicity at 24 h, 0.1 nM",in vitro,11.2%
same,"cytotoxicity at 24 h, 0.3 nM",in vitro,11.4%
same,"cytotoxicity at 24 h, 1 nM",in vitro,10.9%
same,"cytotoxicity at 24 h, 3 nM",in vitro,16.6%
same,"cytotoxicity at 24 h, 10 nM",in vitro,44.8%
same,"cytotoxicity at 24 h, 30 nM",in vitro,75%
same,"cytotoxicity at 24 h, 60 nM",in vitro,77.4%
same,"cytotoxicity at 24 h, 100 nM",in vitro,78.9%
same,apoptosis/Caspase 3/7 activation in the control haploid cells,"Caspase 3/7 [1]; 3 nM onwards, compared to NF2 knockout cell line",minimal increase in apoptosis/Caspase 3/7 activation
same,caspase activity (apoptosis) in the NF2 knockout cell line,Caspase 3/7 [2]; 3 nM onwards,significant increase in the caspase activity
same,cytotoxicity in the NF2 knockout cell line,[5]; [7],10-15%
same,cytotoxicity in the NF2 knockout cell line (in words),[5]; [7],do not show any significant cytotoxicity
same,Average % Cytotoxicity in the NF2 knockout cells,"[5]; bortezomib 0.1 nM, 6 hrs",−5.18%
same,Average % Cytotoxicity in the NF2 knockout cells,"[5]; bortezomib 0.1 nM, 12 hrs",−21.57%
same,Average % Cytotoxicity in the NF2 knockout cells,"[5]; bortezomib 0.1 nM, 18 hrs",−16.92%
same,Average % Cytotoxicity in the NF2 knockout cells,"[5]; bortezomib 0.1 nM, 24 hrs",−63.43%
same,Average % Cytotoxicity in the NF2 knockout cells,"[5]; bortezomib 0.3 nM, 6 hrs",−5.03%
same,Average % Cytotoxicity in the NF2 knockout cells,"[5]; bortezomib 0.3 nM, 12 hrs",−32.20%
same,Average % Cytotoxicity in the NF2 knockout cells,"[5]; bortezomib 0.3 nM, 18 hrs",−26.59%
same,Average % Cytotoxicity in the NF2 knockout cells,"[5]; bortezomib 0.3 nM, 24 hrs",−71.10%
same,Average % Cytotoxicity in the NF2 knockout cells,"[5]; bortezomib 1 nM, 6 hrs",−1.49%
same,Average % Cytotoxicity in the NF2 knockout cells,"[5]; bortezomib 1 nM, 12 hrs",−28.42%
same,Average % Cytotoxicity in the NF2 knockout cells,"[5]; bortezomib 1 nM, 18 hrs",−25.10%
same,Average % Cytotoxicity in the NF2 knockout cells,"[5]; bortezomib 1 nM, 24 hrs",−66.58%
same,Average % Cytotoxicity in the NF2 knockout cells,"[5]; bortezomib 3 nM, 6 hrs",−0.78%
same,Average % Cytotoxicity in the NF2 knockout cells,"[5]; bortezomib 3 nM, 12 hrs",−24.79%
same,Average % Cytotoxicity in the NF2 knockout cells,"[5]; bortezomib 3 nM, 18 hrs",−19.23%
same,Average % Cytotoxicity in the NF2 knockout cells,"[5]; bortezomib 3 nM, 24 hrs",−68.56%
same,Average % Cytotoxicity in the NF2 knockout cells,"[5]; bortezomib 10 nM, 6 hrs",8.10%
same,Average % Cytotoxicity in the NF2 knockout cells,"[5]; bortezomib 10 nM, 12 hrs",−11.84%
same,Average % Cytotoxicity in the NF2 knockout cells,"[5]; bortezomib 10 nM, 18 hrs",14.52%
same,Average % Cytotoxicity in the NF2 knockout cells,"[5]; bortezomib 10 nM, 24 hrs",29.86%
same,Average % Cytotoxicity in the NF2 knockout cells,"[5]; bortezomib 30 nM, 6 hrs",14.05%
same,Average % Cytotoxicity in the NF2 knockout cells,"[5]; bortezomib 30 nM, 12 hrs",17.18%
same,Average % Cytotoxicity in the NF2 knockout cells,"[5]; bortezomib 30 nM, 18 hrs",35.71%
same,Average % Cytotoxicity in the NF2 knockout cells,"[5]; bortezomib 30 nM, 24 hrs",37.83%
same,Average % Cytotoxicity in the NF2 knockout cells,"[5]; bortezomib 60 nM, 6 hrs",16.44%
same,Average % Cytotoxicity in the NF2 knockout cells,"[5]; bortezomib 60 nM, 12 hrs",16.07%
same,Average % Cytotoxicity in the NF2 knockout cells,"[5]; bortezomib 60 nM, 18 hrs",38.70%
same,Average % Cytotoxicity in the NF2 knockout cells,"[5]; bortezomib 60 nM, 24 hrs",43.98%
same,Average % Cytotoxicity in the NF2 knockout cells,"[5]; bortezomib 100 nM, 6 hrs",10.89%
same,Average % Cytotoxicity in the NF2 knockout cells,"[5]; bortezomib 100 nM, 12 hrs",15.71%
same,Average % Cytotoxicity in the NF2 knockout cells,"[5]; bortezomib 100 nM, 18 hrs",39.72%
same,Average % Cytotoxicity in the NF2 knockout cells,"[5]; bortezomib 100 nM, 24 hrs",45.16%
same,toxicity in the NF2 knockout cell line (in words),"[5]; higher concentration (>30 nM), 18 hrs and 24 hrs",slight toxicity was observed
same,toxicity in the wild type haploid (HAP1) cell line (in words),[6]; 6 hrs,did not show any significant toxicity
same,toxicity in the wild type haploid (HAP1) cell line (in words),"[6]; higher concentration (>30 nM), 12, 18 & 24 hrs",toxicity was observed
